Structures are written as SMILES.

The first experiment deals with T1, B1R receptor of the rat (CHO K1 cells stably transfected with the B1R gene of the rat) (Rattus norvegicus, UniProt P97583).
T1 construct: expressed in transfected cells; host or cells: CHO K1 cells (Chinese hamster ovary), stably transfected
T1 sequence (P97583 1-337): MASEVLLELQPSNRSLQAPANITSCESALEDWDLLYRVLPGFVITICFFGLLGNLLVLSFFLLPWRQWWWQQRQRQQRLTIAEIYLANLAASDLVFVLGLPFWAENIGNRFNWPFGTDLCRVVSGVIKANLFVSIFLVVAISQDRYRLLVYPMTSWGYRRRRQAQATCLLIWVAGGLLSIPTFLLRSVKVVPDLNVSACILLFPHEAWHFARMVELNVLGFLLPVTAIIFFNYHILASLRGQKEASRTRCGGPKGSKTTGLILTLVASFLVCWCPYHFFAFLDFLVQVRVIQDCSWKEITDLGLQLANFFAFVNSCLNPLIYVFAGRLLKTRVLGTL
Description: Functional study on the bradykinin receptor 1 (B1R), Ca2+ fluorescence (Fluo-4) FLIPR/Novostar assay, rB1R cells. Conditions: CHO-K1, 10 μM, library compounds CC_H, read-out: % Inhibition (r-B1R) at 10 μM. The format is cell-based. The essentials: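 Stably transfected CHO K1 cells carrying human or rat B1R were Fluo-4 loaded and Ca2+ fluorescence read by FLIPR or Novostar. Compounds were added first at 10 μM for % activation, then the EC80 agonist was applied after 6-20 min (human: Lys-Des-Arg9-bradykinin; rat: Des-Arg9-bradykinin). % inhibition is relative to maximum achievable inhibition, and IC50 comes from concentration series.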
The term inhibition denotes the change of the read-out against control, counted positive when it falls. As to `CN(C(=O)c1ccc2c(c1)C(NC(=O)c1cccnc1C(F)(F)F)CC2)C1CCN(c2ccnc(S(C)(=O)=O)n2)CC1` (stereo not shown) [CC_H-600, N-[6-[Methyl-[1-(2-methylsulfonyl-pyrimidin-4-yl)-piperidin-4-yl]-carbamoyl]-2,3-dihydro-1H-inden-1-yl]-2-(trifluoromethyl)-pyridine-3-carboxylic acid amide], the inhibition at 10 µM stood at 91%.

Take `CN(C)C(=O)c1cc(N2CCC(N(C)C(=O)c3ccc4c(c3)C(NC(=O)c3cccnc3C(F)(F)F)CC4)CC2)ccn1` (stereo not shown) [CC_H-601, N-[6-[[1-[2-(Dimethyl-carbamoyl)-pyridin-4-yl]-piperidin-4-yl]-methyl-carbamoyl]-2,3-dihydro-1H-inden-1-yl]-2-(trifluoromethyl)-pyridine-3-carboxylic acid amide]: the inhibition at 10 µM is 74%.

Staying with this experiment, now noted: CHO-K1, 10 μM, read-out: % Inhibition (r-B1R) at 10 μM.
Turning to `Cc1cc(N2CCC(N(C)C(=O)c3ccc4c(c3)C(N(C)C(=O)CC(C)C)CC4)CC2)cc(C)n1` (stereo not shown) [CC_H-352, N-[1-(2,6-Dimethyl-pyridin-4-yl)-piperidin-4-yl]-N-methyl-3-[methyl-(3-methyl-butanoyl)-amino]-2,3-dihydro-1H-indene-5-carboxylic acid amide], the inhibition at 10 µM turned out to be 110%. The same measure, in the same setting: the result for `CCCC(=O)N(C)C1CCc2ccc(C(=O)N(C)C3CCN(c4cc(C)nc(C)c4)CC3)cc21` (stereo not shown) [CC_H-353, 3-(Butanoyl-methyl-amino)-N-[1-(2,6-dimethyl-pyridin-4-yl)-piperidin-4-yl]-N-methyl-2,3-dihydro-1H-indene-5-carboxylic acid amide] reads 84%. Take `Cc1cc(N2CCC(N(C)C(=O)c3ccc4c(c3)C(N(C)C(=O)CCC3CCCC3)CC4)CC2)cc(C)n1` (stereo not shown) [CC_H-354, 3-(3-Cyclopentyl-propanoyl-methyl-amino)-N-[1-(2,6-dimethyl-pyridin-4-yl)-piperidin-4-yl]-N-methyl-2,3-dihydro-1H-indene-5-carboxylic acid amide]: the inhibition at 10 µM was 110%. Still for that read-out and setting: the result for `Cc1cc(N2CCC(N(C)C(=O)c3ccc4c(c3)C(N(C)S(=O)(=O)Cc3cccc(C(F)(F)F)c3)CC4)CC2)cc(C)n1` (stereo not shown) [CC_H-355, N-[1-(2,6-Dimethyl-pyridin-4-yl)-piperidin-4-yl]-N-methyl-3-[methyl-[[3-(trifluoromethyl)phenyl]-methylsulfonyl]-amino]-2,3-dihydro-1H-indene-5-carboxylic acid amide] reads 96%.

In the case of `CN(C(=O)c1ccc2c(c1)C(NC(=O)c1cc(F)ccc1Cl)CC2)C1CCN(c2ccc3cnccc3c2)CC1` (stereo not shown) [CC_H-356, 3-[(2-Chloro-5-fluoro-benzoyl)amino]-N-(1-isoquinolin-6-yl-piperidin-4-yl)-N-methyl-2,3-dihydro-1H-indene-5-carboxylic acid amide], the inhibition at 10 µM was determined as 109%.

For `CN(C(=O)c1ccc2c(c1)C(NC(=O)c1cc(C(F)(F)F)ccc1Cl)CC2)C1CCN(c2ccc3cnccc3c2)CC1` (stereo not shown) [CC_H-357, 3-[[2-Chloro-5-(trifluoromethyl)-benzoyl]amino]-N-(1-isoquinolin-6-yl-piperidin-4-yl)-N-methyl-2,3-dihydro-1H-indene-5-carboxylic acid amide], the inhibition at 10 µM was determined as 110%. With `Cc1ccc(F)c(C(=O)NC2CCc3ccc(C(=O)N(C)C4CCN(c5ccc6cnccc6c5)CC4)cc32)c1Cl` (stereo not shown) [CC_H-358, 3-[(2-Chloro-6-fluoro-3-methyl-benzoyl)amino]-N-(1-isoquinolin-6-yl-piperidin-4-yl)-N-methyl-2,3-dihydro-1H-indene-5-carboxylic acid amide], the inhibition at 10 µM worked out at 111%.

Regarding `CN(C(=O)c1ccc2c(c1)C(NC(=O)c1cc(Cl)ccc1Cl)CC2)C1CCN(c2ccc3cnccc3c2)CC1` (stereo not shown) [CC_H-359, 3-[(2,5-Dichloro-benzoyl)amino]-N-(1-isoquinolin-6-yl-piperidin-4-yl)-N-methyl-2,3-dihydro-1H-indene-5-carboxylic acid amide], the inhibition at 10 µM amounted to 110%. Turning to `CN(C(=O)c1ccc2c(c1)C(NC(=O)C1CCCCC1)CC2)C1CCN(c2ccc3cnccc3c2)CC1` (stereo not shown) [CC_H-360, 3-(Cyclohexanecarbonylamino)-N-(1-isoquinolin-6-yl-piperidin-4-yl)-N-methyl-2,3-dihydro-1H-indene-5-carboxylic acid amide], the inhibition at 10 µM came out at 109%. In the case of `CN(C(=O)c1ccc2c(c1)C(NC(=O)C1CC1)CC2)C1CCN(c2ccc3cnccc3c2)CC1` (stereo not shown) [CC_H-361, 3-(Cyclopropanecarbonylamino)-N-(1-isoquinolin-6-yl-piperidin-4-yl)-N-methyl-2,3-dihydro-1H-indene-5-carboxylic acid amide], the inhibition at 10 µM came out at 110%. On the same count and under the same terms, for `CN(C(=O)c1ccc2c(c1)C(NC(=O)CC(C)(C)C)CC2)C1CCN(c2ccc3cnccc3c2)CC1` (stereo not shown) [CC_H-362, 3-(3,3-Dimethyl-butanoylamino)-N-(1-isoquinolin-6-yl-piperidin-4-yl)-N-methyl-2,3-dihydro-1H-indene-5-carboxylic acid amide] the value was 110%; for `COCC(=O)NC1CCc2ccc(C(=O)N(C)C3CCN(c4ccc5cnccc5c4)CC3)cc21` (stereo not shown) [CC_H-363, N-(1-Isoquinolin-6-yl-piperidin-4-yl)-3-[(2-methoxy-acetyl)amino]-N-methyl-2,3-dihydro-1H-indene-5-carboxylic acid amide], 89%. The same measure, in the same setting: for `CN(C(=O)c1ccc2c(c1)C(NC(=O)c1cccc(C(F)(F)F)c1Cl)CC2)C1CCN(c2ccc3cnccc3c2)CC1` (stereo not shown) [CC_H-364, 3-[[2-Chloro-3-(trifluoromethyl)-benzoyl]amino]-N-(1-isoquinolin-6-yl-piperidin-4-yl)-N-methyl-2,3-dihydro-1H-indene-5-carboxylic acid amide] the value was 111%; for `CN(C(=O)c1ccc2c(c1)C(NC(=O)Nc1ccccc1Cl)CC2)C1CCN(c2ccc3cnccc3c2)CC1` (stereo not shown) [CC_H-365, 3-[[(2-Chlorophenyl)-carbamoyl]amino]-N-(1-isoquinolin-6-yl-piperidin-4-yl)-N-methyl-2,3-dihydro-1H-indene-5-carboxylic acid amide], 64%; for `CN(C(=O)c1ccc2c(c1)C(NC(=O)Nc1c(Cl)cccc1Cl)CC2)C1CCN(c2ccc3cnccc3c2)CC1` (stereo not shown) [CC_H-366, 3-[[(2,6-Dichloro-phenyl)-carbamoyl]amino]-N-(1-isoquinolin-6-yl-piperidin-4-yl)-N-methyl-2,3-dihydro-1H-indene-5-carboxylic acid amide], 92%. Still for that read-out and setting: for `CN(C(=O)NC1CCc2ccc(C(=O)N(C)C3CCN(c4ccc5cnccc5c4)CC3)cc21)c1ccccc1Cl` (stereo not shown) [CC_H-375, 3-[[(2-Chlorophenyl)-methyl-carbamoyl]amino]-N-(1-isoquinolin-6-yl-piperidin-4-yl)-N-methyl-2,3-dihydro-1H-indene-5-carboxylic acid amide] the value was 91%; for `CN(C(=O)NC1CCc2ccc(C(=O)N(C)C3CCN(c4ccc5cnccc5c4)CC3)cc21)c1ccc(Cl)cc1Cl` (stereo not shown) [CC_H-376, 3-[[(2,4-Dichlorophenyl)-methyl-carbamoyl]amino]-N-(1-isoquinolin-6-yl-piperidin-4-yl)-N-methyl-2,3-dihydro-1H-indene-5-carboxylic acid amide], 77%. Regarding `CCCS(=O)(=O)NC1CCc2ccc(C(=O)N(C)C3CCN(c4ccc5cnccc5c4)CC3)cc21` (stereo not shown) [CC_H-378, N-(1-Isoquinolin-6-yl-piperidin-4-yl)-N-methyl-3-[(propylsulfonyl)amino]-2,3-dihydro-1H-indene-5-carboxylic acid amide], the inhibition at 10 µM is 101%. Still for that read-out and setting: for `CC(C)CC(=O)NC1CCc2ccc(C(=O)N(C)C3CCN(c4ccc5cnccc5c4)CC3)cc21` (stereo not shown) [CC_H-379, N-(1-Isoquinolin-6-yl-piperidin-4-yl)-N-methyl-3-(3-methyl-butanoylamino)-2,3-dihydro-1H-indene-5-carboxylic acid amide] the value was 110%; for `CCCC(=O)NC1CCc2ccc(C(=O)N(C)C3CCN(c4ccc5cnccc5c4)CC3)cc21` (stereo not shown) [CC_H-380, 3-(Butanoylamino)-N-(1-isoquinolin-6-yl-piperidin-4-yl)-N-methyl-2,3-dihydro-1H-indene-5-carboxylic acid amide], 103%.

For `CN(C(=O)c1ccc2c(c1)C(NC(=O)CCC1CCCC1)CC2)C1CCN(c2ccc3cnccc3c2)CC1` (stereo not shown) [CC_H-381, 3-(3-Cyclopentyl-propanoylamino)-N-(1-isoquinolin-6-yl-piperidin-4-yl)-N-methyl-2,3-dihydro-1H-indene-5-carboxylic acid amide], the inhibition at 10 µM came out at 109%. As for `CN(C(=O)c1ccc2c(c1)C(NS(=O)(=O)Cc1cccc(C(F)(F)F)c1)CC2)C1CCN(c2ccc3cnccc3c2)CC1` (stereo not shown) [CC_H-383, N-(1-Isoquinolin-6-yl-piperidin-4-yl)-N-methyl-3-[[[3-(trifluoromethyl)phenyl]-methylsulfonyl]amino]-2,3-dihydro-1H-indene-5-carboxylic acid amide], the inhibition at 10 µM is 50%. On to `CN(C(=O)c1ccc2c(c1)C(NS(=O)(=O)Cc1ccccc1F)CC2)C1CCN(c2ccc3cnccc3c2)CC1` (stereo not shown) [CC_H-384, 3-[[(2-Fluorophenyl)-methylsulfonyl]amino]-N-(1-isoquinolin-6-yl-piperidin-4-yl)-N-methyl-2,3-dihydro-1H-indene-5-carboxylic acid amide], for which the inhibition at 10 µM stood at 109%.
